Test results published in paper PMC7269033, “A composite nanocarrier to inhibit precipitation of the weakly basic drug in the gastrointestinal tract” (Drug Delivery, 2020).
Converted amounts (≈) assume the structure as drawn. Where two headings read alike, the source gives them in different places.

Key:
[1] = Cytotoxicity by MTT assay; assay type: cell-based; conditions: human, Caco-2 cells, tested concentrations 0.05 μg/mL to 200 μg/mL, read-out: cell viability
Procedure: Cytotoxicity of DE, dabigatran etexilate-loaded single micelles (DE-SMs) and DE-CMs was investigated by the MTT assay (Zhai et al., [2013]). Caco-2 cells were supplied by KeyGEN BioTECH Co., Ltd. (Nanjing, China) and maintained in medium composite of DMEM (high glucose), 20% FBS and 1% penicillin/streptomycin solution. Cells were cultured at a density of 5 × 10^4 cells/well in 96-well plates and incubated at 37 °C under 5% CO2 for 24 h. Then, the complete medium was removed and cells were further incubated with 100 μL of complete medium containing DE, DE-SMs and DE-CMs at 37 °C for 24 h, respectively. Next, the medium was replaced with 20 μL of MTT (5 mg/mL) solution and 80 μL of fresh medium. Following 4 h of incubation, the medium containing MTT was discarded and 150 μL of DMSO was added to each well to dissolve the granular crystallization. The optical density of the samples was measured at 490 nm wavelength using a microplate ELISA analyzer (Thermo Scientific, USA) (Fan et al., [2017a]). The negative control was the group of Caco-2 cells without drugs. Cell viability was calculated as follows: (4) Cell viability (%)=(1−ODnegtive control−ODsample/ODnegtive control)×100% where ODnegative control is the optical density of the negative control group, and ODsample is the optical density of the experimental group.

[2] = Cellular transport studies (Papp, efflux ratio); assay type: in vitro ADME; conditions: human
Procedure: The Caco-2 cell monolayer is the most widespread model for cellular transport experiments to evaluate the efflux effect of P-gp (Hunter et al., [1993]). The transepithelial electrical resistance (TEER) value of Caco-2 cell monolayer model was measured using a cell resistance meter (Millicell-ERS, Millipore, USA), and models were used for transport experiments when the TEER value exceeded […] (Andrew & Cameron, [2012]).
For apical to basolateral (AP > BL) (basolateral to apical (BL > AP)) transport experiments, 1.5 mL of Hank’s Balanced Salt Solution (HBSS) loaded with DE, DE-SMs and DE-CMs (the concentration of DE in different groups was 200 μg/mL) was added to the AP side (BL side) and 2.6 mL of blank HBSS was added to the BL side (AP side), respectively. At fixed time intervals, 400 μL aliquots were taken from the BL side (AP side) with replacement of the fresh HBSS. The samples were frozen in a refrigerator at –80 °C until HPLC analysis. The HPLC method employed an ODS C18 column (250 × 4.6 mm, 5 μm, Dikma Technologies, China) and a methanol-water (75:25, v/v) mobile phase with a flow rate of 1.0 mL/min. The detection wavelength was 316 nm and the injection volume was 20 μL. The apparent permeability coefficient (Papp) and efflux ratio (ER) were calculated as follows: (5) Papp=dQ/dt/A×C0 where dQ/dt is the steady-state appearance rate of DE on the receiver side, C0 is the initial concentration of DE on the supply side, and A is the surface area of the cell monolayer. (6) ER=Papp(BL→AP)/Papp(AP→BL) where Papp(BL→AP) is the Papp value of DE transferred from the BL side to AP side, and Papp(AP→BL) is the Papp value of DE transferred from the AP side to BL side.

[3] = set-up: method as in Chai et al., 2016; conditions: 37 °C, ref Chai et al., 2016, cited from earlier work
[4] = cited from earlier work

efflux ratio at 200 μg/mL ([2]; Caco-2, Papp(BL→AP)/Papp(AP→BL), read-out: ER value (efflux ratio)): 14.2
Papp A→B at 200 μg/mL ([2]; Caco-2 monolayer, DE 200 μg/mL, read-out: Papp (AP to BL)): 0.59 ± 0.055 ×10⁻⁶ cm/s
Papp B→A at 200 μg/mL ([2]; Caco-2 monolayer, DE 200 μg/mL, read-out: Papp (BL to AP)): 8.44 ± 0.072 ×10⁻⁶ cm/s
SMILES: CCCCCCOC(=O)NC(=N)c1ccc(NCc2nc3cc(C(=O)N(CCC(=O)OCC)c4ccccn4)ccc3n2C)cc1 [DE, dabigatran etexilate]
viability at 24 h [1]: > 80%
solubility ([3]; SGF): 19245 µg/mL (≈ 30.7 mM)
solubility ([3]; SIF): 3.06 µg/mL (≈ 0.00487 mM)
absolute bioavailability ([4]; after oral administration, ref Greig & Mckeage, 2014): approximately 6.5%
oral bioavailability ([4]; ref Wang et al., 2013): 3–7%
